Data on 15 compounds can be found in patent US11584714B2 (priority 2018, dated 2023).

Where a name gives a salt, the structure may show the parent alone. Read-outs that look alike come from different tables or passages of the source.

Assay type in all cases: biochemical
For one assay, the target named is human α-thrombin (Homo sapiens (Human), UniProt P00734). As to the kind of experiment: Enzymatic assay for thrombin (Boc-VPR-AMC substrate).
Another assay deals with mMASP-2 (Mus musculus (Mouse), UniProt Q91WP0). Put plainly: Enzymatic inhibition of mMASP-2. The settings on record: read-out: mMASP-2 Ki.
Another assay deals with MASP-2 (CCP1-CCP2-SP) (Homo sapiens (Human), UniProt O00187). As to the kind of experiment: biochemical. The settings on record: for MASP-2 vs. thrombin selectivity: selectivity for MASP-2 inhibition versus thrombin.
Chain of MASP-2 (CCP1-CCP2-SP) (O00187 445-686): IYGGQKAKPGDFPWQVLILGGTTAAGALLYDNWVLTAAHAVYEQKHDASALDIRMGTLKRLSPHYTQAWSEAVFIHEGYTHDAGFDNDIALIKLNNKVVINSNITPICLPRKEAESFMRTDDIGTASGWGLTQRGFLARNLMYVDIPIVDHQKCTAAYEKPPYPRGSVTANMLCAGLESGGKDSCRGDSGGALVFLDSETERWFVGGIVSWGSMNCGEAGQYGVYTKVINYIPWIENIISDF

Chain of mMASP-2 (Q91WP0 20-685): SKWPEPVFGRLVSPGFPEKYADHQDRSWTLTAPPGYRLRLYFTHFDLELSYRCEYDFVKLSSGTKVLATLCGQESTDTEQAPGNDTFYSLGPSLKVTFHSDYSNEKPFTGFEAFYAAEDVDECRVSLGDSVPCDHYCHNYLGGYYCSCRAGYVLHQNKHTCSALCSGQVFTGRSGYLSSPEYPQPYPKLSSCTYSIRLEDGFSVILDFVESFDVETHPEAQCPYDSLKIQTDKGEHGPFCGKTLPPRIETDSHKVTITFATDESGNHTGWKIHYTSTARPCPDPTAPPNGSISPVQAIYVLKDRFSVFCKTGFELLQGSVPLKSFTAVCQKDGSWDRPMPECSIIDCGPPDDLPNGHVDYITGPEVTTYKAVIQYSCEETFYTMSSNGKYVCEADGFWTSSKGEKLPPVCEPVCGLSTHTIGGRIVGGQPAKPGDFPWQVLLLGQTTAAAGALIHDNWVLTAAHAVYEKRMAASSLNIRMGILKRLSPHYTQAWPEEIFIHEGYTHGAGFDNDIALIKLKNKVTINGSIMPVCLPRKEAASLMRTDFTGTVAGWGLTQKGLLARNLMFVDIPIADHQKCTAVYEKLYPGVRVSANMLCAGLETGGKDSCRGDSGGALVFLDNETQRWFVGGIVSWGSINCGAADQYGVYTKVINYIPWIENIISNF

By Ki is commonly meant the equilibrium dissociation constant of an inhibitor or competing ligand from its target. On to `C[C@H](NC(=O)[C@H]1C[C@H](c2ccccc2)CN1)C(=O)NCc1ccc2[nH]cc(Cl)c2c1` [compound 1362, (2R,4R)—N—((S)-1-(((3-Chloro-1H-indol-5-yl)methyl)amino)-1-oxopropan-2-yl)-4-phenylpyrrolidine-2-carboxamide], for which the Ki on human α-thrombin (Thrombin Ki (μM)), on mMASP-2 and on MASP-2 (CCP1-CCP2-SP) was 0.5 to 2.5 µM each time. Also, the “MASP-2 vs. thrombin selectivity” value at MASP-2 (CCP1-CCP2-SP) is “* (≥1.0 to <5.0-fold)”.
Regarding `C[C@H](NC(=O)[C@H]1C[C@H](c2ccccc2)CN1)C(=O)NCc1cc(O)cc(Cl)c1` [compound 1364, (2R,4R)—N—((S)-1-((3-Chloro-5-hydroxybenzyl)amino)-1-oxopropan-2-yl)-4-phenylpyrrolidine-2-carboxamide Hydrochloride], the Ki on human α-thrombin (read-out: Thrombin Ki) was above 25 µM; at mMASP-2, 10 to 25 µM; on MASP-2 (CCP1-CCP2-SP), 0.5 to 2.5 µM.
As to `Cc1cc(Cl)cc(CNC(=O)[C@H](C)NC(=O)[C@H]2C[C@@H](c3ccccc3)CCN2)c1O` [compound 1365, (2R,4S)—N—((S)-1-((5-Chloro-2-hydroxy-3-methylbenzyl)amino)-1-oxopropan-2-yl)-4-phenylpiperidine-2-carboxamide Hydrochloride], the Ki is above 25 µM on human α-thrombin (read-out: Thrombin Ki), below 0.5 µM at mMASP-2 and below 0.5 µM on MASP-2 (CCP1-CCP2-SP) (read-out: MASP-2 Ki). On MASP-2 (CCP1-CCP2-SP), the “MASP-2 vs. thrombin selectivity” value was “**** (≥100-fold)”.
Regarding `C[C@H](NC(=O)[C@H]1C[C@H](c2ccccc2)CN1)C(=O)NCc1ccn2ccnc2c1` [compound 1366, (2R,4R)—N—((S)-1-((Imidazo[1,2-a]pyridin-7-ylmethyl)amino)-1-oxopropan-2-yl)-4-phenylpyrrolidine-2-carboxamide Dihydrochloride], the Ki on human α-thrombin (read-out: Thrombin Ki) was above 25 µM; at mMASP-2, 2.5 to 10 µM; on MASP-2 (CCP1-CCP2-SP) it was 2.5 to 10 µM.
For `Cc1nc(N)ccc1CNC(=O)[C@H](C)NC(=O)c1cc(Cc2ccccc2)n[nH]1` [compound 1367, (S)—N-(1-(((6-Amino-2-methylpyridin-3-yl)methyl)amino)-1-oxopropan-2-yl)-3-benzyl-1H-pyrazole-5-carboxamide], the Ki on human α-thrombin (read-out: Thrombin Ki) is above 25 µM; on mMASP-2, 10 to 25 µM; on MASP-2 (CCP1-CCP2-SP) (read-out: MASP-2 Ki), below 0.5 µM.
In the case of `CC(=O)Nc1ccc(CCN[C@H](CCc2ccccc2)C(=O)N[C@@H](C)C(=O)NCc2ccc(N)nc2C)cc1` [compound 1368, (R)-2-((4-Acetamidophenethyl)amino)-N-((S)-1-(((6-amino-2-methylpyridin-3-yl)methyl)amino)-1-oxopropan-2-yl)-4-phenylbutanamide Dihydrochloride], the figures for the Ki at human α-thrombin (read-out: Thrombin Ki), at mMASP-2 and on MASP-2 (CCP1-CCP2-SP) were above 25 µM, 10 to 25 µM and 0.5 to 2.5 µM, respectively. Also, the “MASP-2 vs. thrombin selectivity” value on MASP-2 (CCP1-CCP2-SP) is listed as “** (≥5.0 to <25-fold)”.
On to `Cc1cccc(C[C@@H]2CN[C@@H](C(=O)N[C@@H](C)C(=O)NCc3cc(Cl)cc(C)c3O)C2)c1` [compound 1369, (2R,4S)—N—((S)-1-((5-Chloro-2-hydroxy-3-methylbenzyl)amino)-1-oxopropan-2-yl)-4-(3-methylbenzyl)pyrrolidine-2-carboxamide Hydrochloride], for which the values for the Ki on human α-thrombin (read-out: Thrombin Ki), at mMASP-2 and at MASP-2 (CCP1-CCP2-SP) (read-out: MASP-2 Ki) were above 25 µM, below 0.5 µM and below 0.5 µM, respectively. Moreover, the “MASP-2 vs. thrombin selectivity” value on MASP-2 (CCP1-CCP2-SP) is reported as “**** (≥100-fold)”.
With `Cc1nc(N)ccc1CNC(=O)[C@H](C)NC(=O)[C@H]1C[C@H](Cc2ccccc2-c2ccccc2)CN1` [compound 1373, (2R,4S)-4-([1,1′-Biphenyl]-2-ylmethyl)-N-((S)-1-(((6-amino-2-methylpyridin-3-yl)methyl)amino)-1-oxopropan-2-yl)pyrrolidine-2-carboxamide Di-trifluoroacetate salt], the Ki at human α-thrombin (Thrombin Ki (μM)) is 0.5 to 2.5 µM; at mMASP-2, below 0.5 µM; on MASP-2 (CCP1-CCP2-SP) (read-out: MASP-2 Ki), below 0.5 µM. For the same compound, the “MASP-2 vs. thrombin selectivity” value on MASP-2 (CCP1-CCP2-SP) was “*** (≥25 to <100-fold)”.
Consider `Cc1cc(Cl)cc(CNC(=O)[C@H](C)NC(=O)[C@H]2C[C@H](Cc3ccc(Br)cc3)CN2)c1O` [compound 1374, (2R,4S)-4-(4-bromobenzyl)-N-((S)-1-((5-chloro-2-hydroxy-3-methylbenzyl)amino)-1-oxopropan-2-yl)pyrrolidine-2-carboxamide Hydrochloride], for which the values for the Ki at human α-thrombin (read-out: Thrombin Ki), on mMASP-2 and at MASP-2 (CCP1-CCP2-SP) (read-out: MASP-2 Ki) were above 25 µM, below 0.5 µM and below 0.5 µM, respectively.
For the compound `CCCCCN[C@H](CCc1ccccc1)C(=O)N[C@@H](C)C(=O)NCc1ccc(N)nc1C` [compound 1377, (R)—N—((S)-1-(((6-Amino-2-methylpyridin-3-yl)methyl)amino)-1-oxopropan-2-yl)-2-(pentylamino)-4-phenylbutanamide Di-trifluoroacetate salt], the Ki at human α-thrombin (Thrombin Ki (μM)) was 10 to 25 µM; on mMASP-2 it was above 25 µM; on MASP-2 (CCP1-CCP2-SP), 0.5 to 2.5 µM. Moreover, at MASP-2 (CCP1-CCP2-SP), the “MASP-2 vs. thrombin selectivity” value is “** (≥5.0 to <25-fold)”.
In the case of `Cc1nc(N)ccc1CNC(=O)[C@H](C)NC(=O)[C@H]1C[C@H](Cc2ccc(C3CCC3)cc2)CN1` [compound 1379, (2R,4S)—N—((S)-1-(((6-Amino-2-methylpyridin-3-yl)methyl)amino)-1-oxopropan-2-yl)-4-(4-cyclobutylbenzyl)pyrrolidine-2-carboxamide Di-trifluoroacetate salt], the Ki is above 25 µM on human α-thrombin (read-out: Thrombin Ki), below 0.5 µM on mMASP-2 and below 0.5 µM on MASP-2 (CCP1-CCP2-SP) (read-out: MASP-2 Ki). At MASP-2 (CCP1-CCP2-SP), the “MASP-2 vs. thrombin selectivity” value is “**** (≥100-fold)”.
Regarding `Cc1nc(N)ccc1CNC(=O)[C@H](C)NC(=O)[C@@H](CCc1ccccc1)NCc1ccc(C(=O)N2CCOCC2)cc1` [compound 1381, (R)—N—((S)-1-(((6-Amino-2-methylpyridin-3-yl)methyl)amino)-1-oxopropan-2-yl)-2-((4-(morpholine-4-carbonyl)benzyl)amino)-4-phenylbutanamide Di-trifluoroacetate salt], the values for the Ki at human α-thrombin (Thrombin Ki (μM)), on mMASP-2 and at MASP-2 (CCP1-CCP2-SP) were 10 to 25 µM, 10 to 25 µM and 0.5 to 2.5 µM, respectively. Moreover, the “MASP-2 vs. thrombin selectivity” value on MASP-2 (CCP1-CCP2-SP) is reported as “** (≥5.0 to <25-fold)”.
Regarding `C[C@H](NC(=O)[C@H]1C[C@H](c2ccccc2)CN1)C(=O)NCc1cnc2[nH]nc(Cl)c2c1` [compound 1384, (2R,4R)—N—((S)-1-(((3-Chloro-1H-pyrazolo[3,4-b]pyridin-5-yl)methyl)amino)-1-oxopropan-2-yl)-4-phenylpyrrolidine-2-carboxamide Dihydrochloride], the Ki at human α-thrombin (read-out: Thrombin Ki) was above 25 µM; on mMASP-2, above 25 µM; on MASP-2 (CCP1-CCP2-SP), 10 to 25 µM. For the same compound, the “MASP-2 vs. thrombin selectivity” value on MASP-2 (CCP1-CCP2-SP) was “* (≥1.0 to <5.0-fold)”.
Consider `C[C@H](NC(=O)[C@H]1C[C@H](Cc2ccc3ccccc3c2)CN1)C(=O)NCc1cc(Cl)ccc1-n1cnnn1` [compound 1385, (2R,4S)—N—((S)-1-((5-chloro-2-(1H-tetrazol-1-yl)benzyl)amino)-1-oxopropan-2-yl)-4-(naphthalen-2-ylmethyl)pyrrolidine-2-carboxamide Trifluoroacetate salt], for which the Ki on human α-thrombin (read-out: Thrombin Ki), at mMASP-2 and on MASP-2 (CCP1-CCP2-SP) (read-out: MASP-2 Ki) was below 0.5 µM each time. Further, the “MASP-2 vs. thrombin selectivity” value at MASP-2 (CCP1-CCP2-SP) was “** (≥5.0 to <25-fold)”.
`C[C@H](NC(=O)[C@H]1C[C@H](c2ccccc2)CN1)C(=O)NCc1cc(Cl)cc(C#N)c1` [compound 1386, (2R,4R)—N—((S)-1-((3-Chloro-5-cyanobenzyl)amino)-1-oxopropan-2-yl)-4-phenylpyrrolidine-2-carboxamide Trifluoroacetate salt]: the Ki at human α-thrombin (read-out: Thrombin Ki) is above 25 µM; at mMASP-2, above 25 µM; at MASP-2 (CCP1-CCP2-SP) it was 10 to 25 µM.
